Patent publication US20050266105A1, “Compositions comprising natural agents for the treatment of HIV-associated opportunistic infections and complications and methods for preparing and using compositions comprising natural agents” (priority 2004, published 2005)
pIC50: −log10 of the molar value. Converted amounts (≈) assume the structure as drawn. Read-outs that look alike come from different tables or passages of the source.

Legend:
MRSA = settings: cited from earlier work
CEM-SS cells = test: Compound cytotoxicity (cell viability in the absence of virus, MTS); assay type: cell-based; settings: read-out: TC50 (the source's name)
Method: Similarly, compound cytotoxicity is measured as the % reduction in cell viability resulting from incubation of the compound with the cells (in the absence of virus). The greater the reduction in cell viability, the greater the cytotoxicity of the compound. […] Macroscopic observation of the cells in each well of the microtiter plate confirmed the cytotoxicity results obtained following staining of the cells with the MTS metabolic dye.

HIV-1RF = test: HIV-1 cytoprotection assay; assay type: cell-based
Method: ICBG plant samples were tested using an HIV-1 cytoprotection assay. This assay is based on the premise that HIV-1RF is cytopathic and kills CEM-SS cells as it replicates in the culture. Compounds that inhibit HIV-1 replication are therefore able to reduce the amount of viral cytopathic effect that occurs in the culture. As a result, compound activity is measured by determining the amount of cell viability remaining in the cultures following the six day incubation period. The % reduction in viral cytopathic effect is a direct measure of compound activity. The greater the % reduction in viral cytopathic effect, the greater the antiviral activity of the compound. […] Macroscopic observation of the cells in each well of the microtiter plate confirmed the cytotoxicity results obtained following staining of the cells with the MTS metabolic dye.

SMILES	MIC (MRSA; MRSA strain 1199-B) [µg/mL]	MIC (MRSA; MRSA strain XU212) [µg/mL]	CC50 (CEM-SS cells) [nM]	Antiviral activity (comments) (HIV-1RF; HIV-1RF in CEM-SS cells, at concentrations tested)	pIC50 (HIV-1RF; HIV-1RF in CEM-SS cells, six day incubation)	AI (Antiviral Index) (HIV-1RF; TC50 / IC50)
CCn1cc(C(=O)O)c(=O)c2cc(F)c(N3CCNCC3)cc21 [Norfloxacin]	64 (≈ 200 µM)	8 (≈ 25.1 µM)	–	–	–	–
CC[C@H]1OC(=O)[C@H](C)[C@@H](O[C@H]2C[C@@](C)(OC)[C@@H](O)[C@H](C)O2)[C@H](C)[C@@H](O[C@@H]2O[C@H](C)C[C@H](N(C)C)[C@H]2O)[C@](C)(O)C[C@@H](C)C(=O)[C@H](C)[C@@H](O)[C@]1(C)O [Erythromycin]	2 (≈ 2.73 µM)	4096 (≈ 5580 µM)	–	–	–	–
Cc1cn([C@H]2C[C@H](N=[N+]=[N-])[C@@H](CO)O2)c(=O)[nH]c1=O [AZT]	–	–	> 500	expected level of antiviral activity	> 8.70	>320
